This note sets out measurements from BindingDB's records for doi:10.1016/j.bmcl.2004.01.047 (University of Huddersfield, 2004).

The nature of the experiment: Binding affinity against metallo-beta-lactamase bacillus cereus(BCII).

Usually Ki stands for the dissociation constant of the complex between target and ligand, obtained from inhibition or displacement. Read a low Ki as a stronger hold on the target.

As to `CC1CS[C@H](c2nc(O)c(-c3ccccc3)[nH]c2=S)NC1C(=O)O` (stereo partly drawn) [(R)-5-Methyl-2-(6-oxo-5-phenyl-3-thioxo-piperazin-2-yl)-3,6-dihydro-2H-[1,3]thiazine-4-carboxylic acid anion], affinity was put at a Ki of 29 µM.
